Source: patent US10624972B2, “Conjugates for treating diseases” (priority 2015, dated 2020)
“Also recorded” adds a separate entry of the source.

Experiments:
[1] = tested on: KB cells; test: cells; type: cell-based, Human; settings: 3 h
Protocol: METHOD. Inhibition of Cellular DNA Synthesis. The conjugates described herein were evaluated using an in vitro cytotoxicity assay that predicted the ability of the drug to inhibit the growth of the corresponding targeted cells, such as, but not limited to the following
It is to be understood that the choice of cell type can be made on the basis of the susceptibility of those selected cells to the drug that forms the conjugate, and the relative expression of the cell surface receptor or target antigen. The test conjugates were conjugates of a cell surface receptor or target antigen binding compound and PBD prodrugs, poly-PBD prodrugs, and mixed PBDs, as described herein. The test cells were exposed to varying concentrations of the conjugates, and optionally also in the absence or presence of at least a 100-fold excess of the unconjugated cell surface receptor or target antigen binding compound for competition studies to assess activity as being specific to the cell surface receptor or target antigen.
EXAMPLE. Conjugates of PBD prodrugs, poly-PBD prodrugs, and mixed PBDs described herein were active against KB cells. The activity was mediated by the folate receptor as indicated by competition experiments using co-administered folic acid. KB cells were exposed for up to 7 h at 37° C. to the indicated concentrations of folate-drug conjugate in the absence or presence of at least a 100-fold excess of folic acid. The cells were then rinsed once with fresh culture medium and incubated in fresh culture medium for 72 hours at 37° C. Cell viability was assessed using a ^3H-thymidine incorporation assay. For conjugates described herein, dose-dependent cytotoxicity was generally measurable, and in most cases, the IC50 values (concentration of drug conjugate required to reduce ^3H-thymidine incorporation into newly synthesized DNA by 50%) were in the low nanomolar range.

[2] = Toxicity as measured by weight loss (test animal total body weight); type: in vivo, mice
Protocol: METHOD. Toxicity as Measured by Weight Loss. The percentage weight change of the test animals was determined on selected days post-tumor inoculation (PTI), and during dosing. The results were graphed.

[3] = tested on: MDA-MB-231 tumors; test: TNBC tumor assay (MDA-MB-231 xenograft); type: in vivo, nu/nu mice; settings: 2 μmol/kg TIW for two weeks
Description: General. […] A PR is observed where tumor volume, as defined herein, decreases from a previous high during the observation period, though regrowth may occur. A CR is observed where tumor volume, as defined herein, decreases to zero during the observation period, though regrowth may occur.
METHOD EXAMPLE. TNBC Tumor Assay. Triple negative breast cancer (TNBC) is a subtype characterized by lack of gene expression for estrogen, progesterone and Her2/neu. TNBC is difficult to treat, and the resulting death rate in patients is reportedly disproportionately higher than for any other subtype of breast cancer. A TNBC xenograft model was generated in an analogous way to the KB and M109 models described herein by implanting MDA-MB-231 breast cancer cells in nu/nu mice. […] Test animals (5/group) were injected intravenously, generally three times a week (TIW), for 2-3 weeks with varying doses, such as with 1 μmol/kg to 5 μmol/kg, of the drug delivery conjugate or with an equivalent dose volume of PBS (control), unless otherwise indicated. Dosing solutions were prepared fresh each day in PBS and administered through the lateral tail vein of the mice.

[4] = tested on: KB-CR2000 tumors; test: Cisplatin therapy of cisplatin-resistant KB-CR2000 tumors; type: in vivo; settings: high, toxic dose of cisplatin
Description: METHOD. Human cisplatin-resistant cell line.

[5] = KB tumor study, 2 μmol/kg TIW for two weeks

C=C1C[C@H]2C(=O)Nc3cc(OCCCCCOc4cc(N)c(C(=O)N5CC(=C)C[C@H]5C5OCCN5C(=O)OCCSSC[C@H](NC(=O)[C@H](CC(=O)O)NC(=O)[C@H](CC(=O)O)NC(=O)[C@H](CCCNC(=N)N)NC(=O)[C@H](CC(=O)O)NC(=O)CC[C@H](NC(=O)c5ccc(NCc6cnc7nc(N)[nH]c(=O)c7n6)cc5)C(=O)O)C(=O)O)cc4OC)c(OC)cc3C(=O)N2C1 (stereo partly shown) [EC1744]
IC50 [1]: 1200 pM
toxicity as evidenced by test animal total body weight [2, 5]: Toxicity was not observed
toxicity as evidenced by test animal total body weight ([2]; MDA-MB-231 tumor study, 2 μmol/kg TIW for two weeks): Toxicity was not observed
MDA-MB-231 tumors compared to untreated control [3]: decreases MDA-MB-231 tumors; also recorded: decreased triple negative breast cancer (TNBC) MDA-MB-231 tumors
complete response, number of test animals, MDA-MB-231 tumors [3]: 5/5
cure, number of test animals, MDA-MB-231 tumors [3]: 4/5

N.N.[Cl][Pt][Cl] [cisplatin]
tumor response to cisplatin therapy [4]: did not produce even a single partial response

C=C1C[C@@H](C2OCCN2C(=O)OCCSSC[C@@H](NC(=O)[C@H](CCC(=O)NC[C@H](O)[C@@H](O)[C@H](O)[C@H](O)CO)NC(=O)[C@@H](CCC(=O)O)NC(=O)[C@H](CCC(=O)NC[C@H](O)[C@@H](O)[C@H](O)[C@H](O)CO)NC(=O)[C@@H](CCC(=O)O)NC(=O)[C@H](CCC(=O)NC[C@H](O)[C@@H](O)[C@H](O)[C@H](O)CO)NC(=O)CC[C@H](NC(=O)c2ccc(NCc3cnc4nc(N)[nH]c(=O)c4n3)cc2)C(=O)O)C(=O)O)N(C(=O)c2cc(OC)c(OCCCCCOc3ccc(-c4nc5ccc(-c6nc7cc(N8CCN(C)CC8)ccc7[nH]6)cc5[nH]4)cc3)cc2N)C1 (stereo partly shown) [EC1879]
IC50 [1]: 560 pM
toxicity as evidenced by test animal total body weight ([2]; KB tumor study, 2 μmol/kg TIW for 1 week): Minor toxicity was observed
toxicity as evidenced by test animal total body weight [2, 5]: Toxicity was not observed
